Results reported in patent US20050266012A1 (priority 2004, published 2005).

Legend:
solid tumors = conditions: phase II trials, variety of doses and schedules; cited from earlier work
hCgA-pulsed DCs [1] = experiment: In vivo cytotoxic assay, hCgA-specific cytolysis; conditions: hCgA-immunized BALB/c mice; 5 mg/kg daily intramuscular for 7 days; P<0.01
Method: (§1) Aldrithiol-2 (AT-2)-inactivated HIV (10^9/50 μl) (LU and ANDRIEU, J. Virol., vol. 75, p: 8949-56, 2001) or human chromogranin A (hCgA, a protein associated with neuro-endocrine tumours (DEGORCE et al., Br. J. Cancer., vol. 79, p: 65-71, 1999); 10 μg/50 μl) plus incomplete Freund's adjuvant (IFA) (50 μl) were injected subcutaneously into 4- to 6-week-old male BALB/c mice (Institute of Laboratory Animal Science, Beijing, China). Mice immunized with AT-2-inactivated HIV (n=12) or hCgA (n=12) were randomly divided into two subgroups. One subgroup (n=6) received daily intramuscular injection of 5-azacytidine (Sigma, St Louis, Mo.) at a dose of 5 mg/kg for 7 days and the other subgroup (n=6) received 0.9% sodium chloride as control. Animals were killed at day 7 for ex vivo analysis. In addition, non-immunized mice (n=6) injected with IFA alone were also killed on the same day to establish a background control.
(§2) This assay was performed as described previously (AICHELE et al., Immunity, vol. 6, p: 519-29, 1997). Briefly, target DCs were prepared from BALB/c bone marrow cell suspensions (LUTZ et al., above mentioned, 1999). […] In vivo HIV- or hCgA-specific cytolysis was assessed by calculating the ratio of non-pulsed DCs/pulsed DCs. […]

AT-2-HIV-pulsed DCs [2] = experiment: In vivo cytotoxic assay, HIV-specific cytolysis; conditions: AT-2-HIV-immunized BALB/c mice; 5 mg/kg daily intramuscular for 7 days; P<0.01
Method: as §1, §2

AT-2-HIV-pulsed DCs [3] = experiment: Ex vivo cytotoxic assay, HIV-specific cytolysis by splenocytes; assay type: in vivo; conditions: AT-2-HIV-immunized BALB/c mice; 5 mg/kg daily intramuscular for 7 days; P<0.01
Method: as §1, with “In addition, non-immunized mice (n=6) injected with IFA alone were also killed on the same day to establish a background control.” left out
(§3) Splenocytes were taken from 7-day-immunized mice and plated into Micro Tubes-Bulk (Bio-Rad, Hercules, Calif.) in the presence of CFSE (Molecular Probes, PoortGebouw, The Netherlands)-labelled AT-2-HIV- or hCgA-pulsed dendritic cells (DCs) at different E:T ratios for 4 h at 37° C. […] Target cytolysis was analyzed on a FACSCalibur (BD Immunocytometry System, San Jose, Calif.). Virus- or tumour-specific cytolytic activity was determined by calculating the percentage of CFSE/PI-staining DCs after subtraction of the non-specific CFSE/PI-staining of non-pulsed DCs. […]

latent EBV promoters = conditions: patients with EBV-associated tumors; cited from earlier work
[4] = test system: relapsed or refractory acute myelogenous leukaemia (AML) and myolodysplastic syndrome (MDS); conditions: cited from earlier work
hCgA-pulsed DCs [5] = experiment: Ex vivo cytotoxic assay, hCgA-specific cytolysis by splenocytes; assay type: in vivo; conditions: hCgA-immunized BALB/c mice; 5 mg/kg daily intramuscular for 7 days; P<0.01
Method: as §1, with “In addition, non-immunized mice (n=6) injected with IFA alone were also killed on the same day to establish a background control.” left out
as §3

[6] = test system: P16 transcription from a methylation-silenced promoter; conditions: prostate cancer cells that grow in nude mice; cited from earlier work

Structure (SMILES)	Clinical results of single agent in solid tumors (solid tumors)	Increase of in vivo hCgA-specific cytolysis of hCgA-pulsed DCs vs untreated immunized animals (hCgA-pulsed DCs [1]) [fold]	Increase of in vivo HIV-specific cytolysis of AT-2-HIV-pulsed DCs vs untreated immunized animals (AT-2-HIV-pulsed DCs [2]) [fold]	Increase of ex vivo HIV-specific cytolysis of AT-2-HIV-pulsed DCs by splenocytes vs untreated immunized animals (AT-2-HIV-pulsed DCs [3]) [fold]	CpG methylation of latent EBV promoters in tumor tissues (latent EBV promoters)	Clinical activity as single agent [4]	Increase of ex vivo hCgA-specific cytolysis of hCgA-pulsed DCs by splenocytes vs untreated immunized animals (hCgA-pulsed DCs [5]) [fold]	P16 transcription from a methylation-silenced promoter [6]
Nc1ncn([C@@H]2O[C@H](CO)[C@@H](O)[C@H]2O)c(=O)n1 [5-Azacytidine]	uniformly disappointing	> 3	> 3	> 2	reversed the dense CpG methylation	limited activity	> 2	–
CCN(CC)CCNC(=O)c1ccc(N)cc1 [procanaimide]	–	–	–	–	–	–	–	reactivate the P16 transcription
